For this assay, the target named is T1, human CCR2 (Homo sapiens, UniProt P41597).
T1 construct: expressed in transfected cells; host or cells: Ba/F3 cells (membranes)
As to the kind of experiment: CCR2 Membrane Binding Assay (SPA radio-ligand binding, 125I-rhMCP-1). The note with it: membranes from Ba/F3 cells transfected with human CCR2, 0.03 nM 125I-rhMCP-1. The protocol:
The radio-ligand binding assay was done using scintillation proximity assay (SPA) technology. Briefly, membranes (1 μg per assay point) from Ba/F3 cells transfected with human CCR2, and wheat germ agglutinin-coated SPA beads (80 μg per point; Amersham, Arlington Heights,Ill.), were pre-incubated for 30 min at room temperature in CCR2 buffer (50 mM HEPES (pH=7.4), 10 mM MgCl2, 10 mM NaCl, 1 mM CaCL2, 0.1% BSA,10 μg/ml Saponin). At this point pre-bound SPA bead, membrane complex was incubated at room temperature for 4 h with varying concentrations of punitive CCR2 antagonists (in 1% DMSO, final) and 0.03 nM ^125I-rhMCP-1 in CCR2 Buffer (S.A. 2200 Ci/mmol, PerkinElmer Life and Analytical Science, Boston, Mass.; NEX332). Binding competition was measured using a 1450 Microbeta Trilux counter(Wallac, Gaithersburg, Md.). Binding constants (IC50 and slope) were calculated using GraphPad Prism software(GraphPad Software, Inc., La Jolla Calif.).

pIC50: −log10 of the molar value.

T1 sequence (P41597 whole entry): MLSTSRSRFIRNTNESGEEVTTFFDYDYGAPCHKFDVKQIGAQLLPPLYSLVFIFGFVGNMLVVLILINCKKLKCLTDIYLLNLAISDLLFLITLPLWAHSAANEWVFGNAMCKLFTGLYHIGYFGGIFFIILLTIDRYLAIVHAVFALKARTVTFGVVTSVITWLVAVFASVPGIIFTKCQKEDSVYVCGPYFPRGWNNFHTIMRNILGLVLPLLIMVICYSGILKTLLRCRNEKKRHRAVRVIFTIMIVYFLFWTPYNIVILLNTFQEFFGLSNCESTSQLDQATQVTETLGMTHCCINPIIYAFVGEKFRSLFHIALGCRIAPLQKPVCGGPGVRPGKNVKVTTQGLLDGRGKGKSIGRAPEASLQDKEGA

On to `CC(C)c1cc2ccc3[nH]c(C(=O)NC4CCN(CCN5CCCCCC5)CC4)cc3c2o1` [Compound 2], for which, under “4 h room temperature”, the pIC50 was 8.27.

Turning to `CC(C)c1cc2ccc3[nH]c(C(=O)N[C@H]4[C@@H]5CN(CCN6CCCCCC6)C[C@@H]54)cc3c2o1` [Compound 3], the negative logarithm of the IC50 (pIC50) (class symbols) is 6.70 to 7.29.

`O=C(NC1CCN(CCN2CCCCCC2)CC1)c1cc2c(ccc3ccccc32)[nH]1` [Compound 4]: the pIC50 (class symbols) is 6.70 to 7.29.

Regarding `Cc1cc2ccc3[nH]c(C(=O)NC4CCN(CCN5CCCCCC5)CC4)cc3c2o1` [Compound 5], the pIC50 (class symbols) is 6.70 to 7.29.

On to `O=C(NC1CCN(CCN2CCCCCC2)CC1)c1cc2c(cc(F)c3ccoc32)[nH]1` [Compound 6], for which the pIC50 (class symbols) is 6.05 to 6.70.

Regarding `O=C(NC1CCN(CCN2CCCCCC2)CC1)c1cc2c3c(c(F)cc2[nH]1)CCO3` [Compound 7], the pIC50 (class symbols) was 6.05 to 6.70.

For the setting “class symbols”, `Cc1c(C(=O)NC2CCN(CCN3CCCCCC3)CC2)[nH]c2ccc3ccccc3c12` [Compound 8] showed a negative-log IC50 (pIC50) of 6.05 to 6.70.

`O=C(NC1CCN(CCN2CCCCCC2)CC1)c1cc2c(cc(F)c3ccccc32)[nH]1` [Compound 9] gave a negative-log IC50 (pIC50) (class symbols) of 6.70 to 7.29.

In turn, `CC(C)COc1cccc2[nH]c(C(=O)NC3CCN(CCN4CCCCCC4)CC3)cc12` [Compound 10] had a pIC50 (4 h room temperature) of 8.40.

The molecule `COc1cc2[nH]c(C(=O)NC3CCN(CCN4CCCCCC4)CC3)cc2c2ccccc12` [Compound 11] had a pIC50 (class symbols) of 6.05 to 6.70.

`COc1cccc2[nH]c(C(=O)NC3CCN(CCN4CCCCCC4)CC3)cc12` [Compound 12]: the negative logarithm of the IC50 (pIC50) (class symbols) was 6.05 to 6.70.

For the setting “class symbols”, `O=C(NC1CCN(CCN2CCCCC2)CC1)c1cc2c(cc(F)c3ccoc32)[nH]1` [Compound 13] had a pIC50 of 6.05 to 6.70.

For the setting “4 h room temperature”, `O=C(NC1CCN(CCN2CCCCCC2)CC1)c1cc2c(OCc3ccccc3)cccc2[nH]1` [Compound 14] had a pIC50 of 7.90.

`CC(C)c1cc2ccc3[nH]c(C(=O)NC4CC45CCN(CCN4CCCCCC4)CC5)cc3c2o1` (stereo not shown) [Compound 15]: the negative logarithm of the IC50 (pIC50) (class symbols) was 6.70 to 7.29.

Turning to `CC(C)COc1cc2c(c3[nH]c(C(=O)NC4CCN(CCN5CCCCCC5)CC4)cc13)CCC2` [Compound 16], for the setting “4 h room temperature”, the pIC50 was 7.40.

Where the note is “4 h room temperature”, `O=C(NC1CCN(CCN2CCCCCC2)CC1)c1cc2c(ccc3cc(-c4ccccc4)oc32)[nH]1` [Compound 17] gave a pIC50 of 7.89.

In turn, `O=C(NC1CCN(CCN2CCCCCC2)CC1)c1cc2c3ccccc3ccc2n1Cc1ccccc1` [Compound 18] gave a pIC50 (class symbols) of 6.05 to 6.70.

For `O=C(NC1[C@H]2CN(CCN3CCCCCC3)C[C@@H]12)c1cc2c(ccc3cc(-c4ccccc4)oc32)[nH]1` (stereo partly shown) [Compound 19], the pIC50 (class symbols) was 6.70 to 7.29.

In turn, `CCOc1cc2[nH]c(C(=O)NC3CCN(CCN4CCCCCC4)CC3)cc2c2ccccc12` [Compound 20] had a pIC50 (class symbols) of 6.70 to 7.29.

For the origin of these results see US20140005174A1, “INDOLE DERIVATIVES USEFUL AS CCR2 ANTAGONISTS” (priority 2011, published 2014).
